Source: patent publication US10538491B2, “4,5-substituted picolinamide and picolinonitrile metabotropic glutamate receptor 2 negative allosteric modulators” (Vanderbilt University, priority 2015, dated 2020)

Target: rat mGlu2 (Rattus norvegicus (Rat), UniProt P31421)
Assay: mGlu2 Ca2+ flux assay
Type: cell-based
Conditions: for IC50: Gα15 HEK293 cells stably expressing rat mGlu2, glutamate EC80, >10,000 = no plateau, >30,000 = no measurable activity; for remaining activity at 30 µM: amplitude of response in the presence of 30 μM test compound as percentage of maximal response to glutamate, read-out: rat mGlu2 Glu max
Summary of the method: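 Gα15 HEK293 cells stably expressing rat mGlu2, Fluo-4 loaded; compound added, then glutamate at EC20 after 2.3 min and EC80 afterward, calcium flux read as F/F0. Peak amplitude around EC80 addition normalized to glutamate max; IC50 by unconstrained 4-parameter fit, top concentration 30 μM.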

Chain of rat mGlu2 (P31421 19-872): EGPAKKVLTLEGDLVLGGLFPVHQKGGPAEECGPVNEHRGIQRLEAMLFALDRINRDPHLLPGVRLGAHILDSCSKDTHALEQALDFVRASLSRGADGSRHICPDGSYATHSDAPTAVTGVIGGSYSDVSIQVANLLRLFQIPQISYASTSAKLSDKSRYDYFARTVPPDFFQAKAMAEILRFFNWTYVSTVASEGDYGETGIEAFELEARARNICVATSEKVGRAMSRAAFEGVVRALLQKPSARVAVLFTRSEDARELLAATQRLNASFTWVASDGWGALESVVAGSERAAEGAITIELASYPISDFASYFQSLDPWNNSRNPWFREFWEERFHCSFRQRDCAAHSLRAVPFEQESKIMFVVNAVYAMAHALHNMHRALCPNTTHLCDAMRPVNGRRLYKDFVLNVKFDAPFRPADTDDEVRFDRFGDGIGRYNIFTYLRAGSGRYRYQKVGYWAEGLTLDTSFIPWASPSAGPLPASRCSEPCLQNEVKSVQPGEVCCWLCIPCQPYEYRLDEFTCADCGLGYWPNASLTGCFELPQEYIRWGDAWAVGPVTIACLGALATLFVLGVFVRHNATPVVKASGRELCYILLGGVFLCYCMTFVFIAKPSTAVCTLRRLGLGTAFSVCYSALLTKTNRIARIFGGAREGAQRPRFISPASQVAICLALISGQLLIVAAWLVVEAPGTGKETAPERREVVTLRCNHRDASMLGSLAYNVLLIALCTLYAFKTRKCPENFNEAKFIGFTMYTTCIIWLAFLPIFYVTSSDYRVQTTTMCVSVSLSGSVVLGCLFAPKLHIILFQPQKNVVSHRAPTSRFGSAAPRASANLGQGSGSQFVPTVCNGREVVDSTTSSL

Row | SMILES | IC50 [µM] | remaining activity at 30 µM [%] | NAM designation (concentration-dependent decrease in the glutamate EC80 response)
1 | CC1CN(CCCOc2cnc(C(N)=O)cc2-c2ccc(F)cc2)CCO1 (stereo not drawn) [Compound 97, 4-(4-fluorophenyl)-5-(3-(2-methylmorpholino)propoxy)picolinamide] | > 10 | 22 | –
2 | C[C@@H]1CN(CCCOc2cnc(C(N)=O)cc2-c2ccc(F)cc2)C[C@H](C)O1 [Compound 99, 5-(3-((cis)-2,6-dimethylmorpholino)propoxy)-4-(4-fluorophenyl)picolinamide] | > 10 | 15.8 | –
3 | NC(=O)c1cc(-c2ccc(F)cc2)c(OCCCN2CCOCC2)cn1 [Compound 100, 4-(4-fluorophenyl)-5-(3-morpholinopropoxy)picolinamide] | > 10 | 46.8 | –
4 | NC(=O)c1cc(-c2ccc(F)cc2)c(OCCOc2cc(F)cc(Br)c2)cn1 [Compound 102, 5-(2-(3-bromo-5-fluorophenoxy)ethoxy)-4-(4-fluorophenyl)picolinamide] | 5.24 | 3.34 | –
5 | NC(=O)c1cc(-c2ccc(F)cc2)c(OCCOc2ccc(F)c(Br)c2)cn1 [Compound 103, 5-(2-(3-bromo-4-fluorophenoxy)ethoxy)-4-(4-fluorophenyl)picolinamide] | > 10 | 53.7 | –
6 | NC(=O)c1cc(-c2ccc(F)cc2)c(OCCOc2cccc(Br)c2F)cn1 [Compound 104, 5-(2-(3-bromo-2-fluorophenoxy)ethoxy)-4-(4-fluorophenyl)picolinamide] | > 30 | – | –
7 | NC(=O)c1cc(-c2ccc(F)cc2)c(OCCOc2ccccc2Br)cn1 [Compound 105, 5-(2-(2-bromophenoxy)ethoxy)-4-(4-fluorophenyl)picolinamide] | > 30 | – | –
8 | NC(=O)c1cc(-c2ccc(F)cc2)c(OCCOc2ccc(F)cc2)cn1 [Compound 107, 5-(2-(4-fluorophenoxy)ethoxy)-4-(4-fluorophenyl)picolinamide] | 8.51 | -10.7 | –
9 | NC(=O)c1cc(-c2ccc(F)cc2)c(OCCOc2ccccc2F)cn1 [Compound 109, 5-(2-(2-fluorophenoxy)ethoxy)-4-(4-fluorophenyl)picolinamide] | – | 2.16 | –

More lines, now with the values ahead:

Row | IC50 [µM] | remaining activity at 30 µM [%] | NAM designation (concentration-dependent decrease in the glutamate EC80 response) | SMILES
10 | 3.27 | 7.38 | – | NC(=O)c1cc(-c2ccc(F)cc2)c(OCCCN2CCC(F)(F)CC2)cn1 [Compound 96, 5-(3-(4,4-difluoropiperidin-1-yl)propoxy)-4-(4-fluorophenyl)picolinamide]
11 | 3.25 | 0.97 | – | CC1(C)CN(CCCOc2cnc(C(N)=O)cc2-c2ccc(F)cc2)CCO1 [Compound 98, 5-(3-(2,2-dimethylmorpholino)propoxy)-4-(4-fluorophenyl)picolinamide]
12 | 4.26 | 1.85 | – | NC(=O)c1cc(-c2ccc(F)cc2)c(OCCOc2cc(Br)ccc2F)cn1 [Compound 101, 5-(2-(5-bromo-2-fluorophenoxy)ethoxy)-4-(4-fluorophenyl)picolinamide]
13 | 3.44 | 26.5 | (Partial NAM) | NC(=O)c1cc(-c2ccc(F)cc2)c(OCCOc2cccc(Br)c2)cn1 [Compound 106, 5-(2-(3-bromophenoxy)ethoxy)-4-(4-fluorophenyl)picolinamide]
14 | 2.38 | 1.95 | – | NC(=O)c1cc(-c2ccc(F)cc2)c(OCCOc2cccc(F)c2)cn1 [Compound 108, 5-(2-(3-fluorophenoxy)ethoxy)-4-(4-fluorophenyl)picolinamide]
15 | 1.72 | 38.7 | – | NC(=O)c1cc(-c2ccc(F)cc2)c(OCCOc2cc(F)cc(F)c2)cn1 [Compound 110, 5-(2-(3,5-difluorophenoxy)ethoxy)-4-(4-fluorophenyl)picolinamide]
16 | 0.624 | 1.34 | – | NC(=O)c1cc(-c2ccc(F)cc2)c(OCCOc2cncc(Br)c2)cn1 [Compound 111, 5-(2-((5-bromopyridin-3-yl)oxy)ethoxy)-4-(4-fluorophenyl)picolinamide]
